Patent EP4635949A1 (Jiangsu NHWA Pharmaceutical Co., Ltd, priority 2022, dated 2024)
Where two headings read alike, the source gives them in different places. Marks after values point to notes of the source that are not given here.

Key:
OX1 receptor = target: T1, OX1 receptor (Homo sapiens, UniProt O43613); experiment: Orexin target function test (Cisbio HTRF IP-one), CHO-K1-OX1 cells, antagonism of EC80 Orexin A; format: cell-based
T1 construct: host or cells: CHO-K1
T1 sequence (O43613 1-425): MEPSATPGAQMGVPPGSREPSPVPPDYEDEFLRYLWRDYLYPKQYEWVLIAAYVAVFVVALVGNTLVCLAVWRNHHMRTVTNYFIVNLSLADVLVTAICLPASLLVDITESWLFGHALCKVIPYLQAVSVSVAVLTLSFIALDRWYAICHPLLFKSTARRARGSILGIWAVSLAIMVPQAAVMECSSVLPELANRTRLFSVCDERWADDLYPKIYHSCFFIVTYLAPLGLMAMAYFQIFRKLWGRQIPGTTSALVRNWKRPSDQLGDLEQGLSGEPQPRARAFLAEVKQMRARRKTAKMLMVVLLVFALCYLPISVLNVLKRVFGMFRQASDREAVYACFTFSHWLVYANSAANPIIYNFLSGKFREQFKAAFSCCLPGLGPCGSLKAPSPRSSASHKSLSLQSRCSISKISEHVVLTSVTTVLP
Method: (§1) Using Cisbio HTRF IP-one kit to detect the changes in IP-one concentration of orexin receptor (OX1/OX2) signaling pathway by microplate reader, and calculating the IC50 value of the compound to evaluate the antagonistic effect of the compound on OX1 and OX2 receptors.
(§2) The cells were centrifuged at 1000 rpm for 5 minutes and the supernatant was discarded. 3 mL of PBS was added, and gently blown with a pipette to mix. After centrifugation at 1000 rpm for 5 minutes again, the supernatant was discarded. […] Based on the antagonistic effect values of the compound samples at different concentrations, the GraphPad Prism software was used to fit the orexin receptor antagonism curve of the compound samples and calculate the IC50.

OX2 receptor = target: T2, OX2 receptor (Homo sapiens, UniProt O43614); experiment: Orexin target function test (Cisbio HTRF IP-one), CHO-K1-OX2 cells, antagonism of EC80 Orexin 2 receptor agonist; format: cell-based
T2 construct: host or cells: CHO-K1
T2 sequence (O43614 1-444): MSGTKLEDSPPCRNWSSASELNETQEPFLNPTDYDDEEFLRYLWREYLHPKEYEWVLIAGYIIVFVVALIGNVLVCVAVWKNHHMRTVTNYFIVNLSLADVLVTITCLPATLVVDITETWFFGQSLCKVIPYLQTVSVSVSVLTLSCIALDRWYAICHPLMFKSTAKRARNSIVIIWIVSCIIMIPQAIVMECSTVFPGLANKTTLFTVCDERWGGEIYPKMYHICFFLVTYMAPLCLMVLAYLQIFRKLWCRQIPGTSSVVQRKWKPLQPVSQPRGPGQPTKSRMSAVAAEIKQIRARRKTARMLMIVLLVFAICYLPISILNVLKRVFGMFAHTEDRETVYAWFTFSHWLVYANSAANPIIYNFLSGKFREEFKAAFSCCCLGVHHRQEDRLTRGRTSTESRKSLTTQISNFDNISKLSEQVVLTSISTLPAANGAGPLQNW
Method: as §1, §2

SD rats = experiment: Autonomous activity of rats; format: in vivo
Method: The animals were placed in the test box immediately after administration, and the activity distance of the animals within 60 minutes was recorded and analyzed using Top Scan Version 3.0. […] The experimental data were expressed by mean ± standard deviation (Mean ± SD), and SPSS 21.0 statistical software was used for one-way analysis of variance. The Dunnett's test was used for pairwise comparison, and p<0.05 was represented as *.

in vivo = settings: male, SD, rat, plasma
[1] = CHO-K1-OX1 cells, IP-one, read-out: hOXIR IC50
[2] = CHO-K1-OX2 cells, IP-one, read-out: hOX2R IC50
[3] = male SD rats, dose 10 mg/kg, versus blank vehicle group
[4] = male SD rats, dose 10 mg/kg, within 60 minutes, Mean ± SD
[5] = male SD rats, dose 30 mg/kg, versus blank vehicle group
[6] = male SD rats, dose 30 mg/kg, within 60 minutes, Mean ± SD
[7] = male SD rats, dose 50 mg/kg, versus blank vehicle group
[8] = male SD rats, dose 50 mg/kg, within 60 minutes, Mean ± SD
[9] = ratio of OX1R IC50 to OX2R IC50

Compound	IC50 (OX1 receptor; [1]) [µM]	Selectivity (OX2 receptor)	IC50 (OX2 receptor; [2]) [µM]	AUC(0-t) (in vivo; iv, 1 mg/kg) [ng·h/mL]	Cmax (in vivo; iv, 1 mg/kg) [ng/mL]	AUC(0-t) (in vivo; po, 30 mg/kg) [ng·h/mL]	Cmax (in vivo; po, 30 mg/kg) [ng/mL]	bioavailability (in vivo; po, 30 mg/kg) [%]	Selectivity (OX2 receptor; [9])	also measured
Cc1nc(C2=CC3CN(C(=O)c4c(F)cccc4-n4nccn4)CC3C2)nc(C)c1F (stereo not shown) [Compound 1, (5-(5-fluoro-4,6-dimethylpyrimidin-2-yl)-3,3a,4,6a-tetrahydrocyclopenta[c]pyrrol-2(1H)-yl)(2-fluoro-6-(2H-1,2,3-triazol-2-yl)phenyl)methanone]	1.13	80	0.014							Inhibition rate(%) (SD rats; [3]): 16.33%; Activity distance (mm) (SD rats; [4]): 59434.65±1478.32 mm; Inhibition rate(%) (SD rats; [5]): 23.37* %; Activity distance (mm) (SD rats; [6]): 54433.35±3341.26 mm; Inhibition rate(%) (SD rats; [7]): 59.81* %; Activity distance (mm) (SD rats; [8]): 28548.56±1238.05 mm
Cc1nc(C2=CC3CN(C(=O)c4ccc(F)cc4-n4nccn4)CC3C2)nc(C)c1F (stereo not shown) [Compound 2, (4-fluoro-2-(2H-1,2,3-triazol-2-yl)phenyl)(5-(5-fluoro-4,6-dimethylpyrimidin-2-yl)-3,3a,4,6a-tetrahydrocyclopenta[c]pyrrol-2(1H)-yl)methanone]		128		869	1880	15000	7480	57.6		IC50 (OX1 receptor): 2.3 µM; IC50 (OX2 receptor): 0.018 µM; Activity distance (mm) (SD rats; rat, in vivo, 10 mg/kg): 52097.9±18671.68 mm; Inhibition rate(%) (SD rats; rat, in vivo, 10 mg/kg): 26.66* %; Activity distance (mm) (SD rats; rat, in vivo, 30 mg/kg): 46276.83±15906.44 mm; Inhibition rate(%) (SD rats; rat, in vivo, 30 mg/kg): 34.85 * %; Activity distance (mm) (SD rats; rat, in vivo, 50 mg/kg): 37866.51±7149.48 mm; Inhibition rate(%) (SD rats; rat, in vivo, 50 mg/kg): 46.69* %
COc1ccc(C(=O)N2CC3C=C(c4nc(C)c(F)c(C)n4)CC3C2)c(-n2nccn2)c1 (stereo not shown) [Compound 5, (5-(5-fluoro-4,6-dimethylpyrimidin-2-yl)-3,3a,4,6a-tetrahydrocyclopenta[c]pyrrol-2(1H)-yl)(4-methoxy-2-(2H-1,2,3-triazol-2-yl)phenyl)methanone]		171		738	1600	18500	13800	83.6		IC50 (OX1 receptor): 2.8 µM; IC50 (OX2 receptor): 0.016 µM; Activity distance (mm) (SD rats; rat, in vivo, 10 mg/kg): 44396.01±2185.62 mm; Inhibition rate(%) (SD rats; rat, in vivo, 10 mg/kg): 37.50* %; Activity distance (mm) (SD rats; rat, in vivo, 30 mg/kg): 32526.47±1464.45 mm; Inhibition rate(%) (SD rats; rat, in vivo, 30 mg/kg): 45.79* %
COc1nc(C2=CC3CN(C(=O)c4c(F)cccc4-n4nccn4)CC3C2)nc(C)c1F (stereo not shown) [Compound 8, (5-(5-fluoro-4-methoxy-6-methylpyrimidin-2-yl)-3,3a,4,6a-tetrahydrocyclopenta[c]pyrrol-2(1H)-yl)(2-fluoro-6-(2H-1,2,3-triazol-2-yl)phenyl)methanone]	1.24		0.012	808	3220	16900	13800	69.8	100	
Cc1nc(C2=CC3CN(C(=O)c4c(F)cccc4-n4nccn4)CC3C2)nc2c1COC2 (stereo not shown) [Compound 20, (2-fluoro-6-(2H-1,2,3-triazol-2-yl)phenyl)(5-(4-methyl-5,7-dihydrofuro[3,4-d]pyrimidin-2-yl)-3,3a,4,6a-tetrahydrocyclopenta[c]pyrrol-2(1H)-yl)methanone]	3.17		0.0245						129	Inhibition rate(%) (SD rats; [3]): 14.67%; Activity distance (mm) (SD rats; [4]): 60610.23±1657.26 mm; Inhibition rate(%) (SD rats; [5]): 24.24* %; Activity distance (mm) (SD rats; [6]): 53815.36±1401.21 mm; Inhibition rate(%) (SD rats; [7]): 31.17* %; Activity distance (mm) (SD rats; [8]): 48892.70±2164.16 mm
CCOc1ccc(C(=O)N2CC3C=C(c4nc(C)cnc4OC)CC3C2)c(-n2nccn2)c1 (stereo not shown) [Compound 45, [4-ethoxy-2-(2H-1,2,3-triazol-2-yl)phenyl][5-(3-methoxy-6-methylpyrazin-2-yl)-3,3a,4,6a-tetrahydrocyclopenta[c]pyrrol-2(1H)-yl]methanone]	3		0.025	1560	2520	36000	19600	77.1	125	
COc1ccc(C(=O)N2CC3C=C(c4nc(C)cnc4OC)CC3C2)c(-c2ncccn2)c1 (stereo not shown) [Compound 48, [4-methoxy-2-(pyrimidin-2-yl)phenyl][5-(3-methoxy-6-methylpyrazin-2-yl)-3,3a,4,6a-tetrahydrocyclopenta[c]pyrrol-2(1H)-yl]methanone]	3.25		0.021	886	3310	10100	9410	37.8	154	
[2H]C([2H])([2H])c1cnc(OC)c(C2=CC3CN(C(=O)c4ccc(OC)cc4-n4nccn4)CC3C2)n1 (stereo not shown) [Compound 56, [4-methoxy-2-(2H-1,2,3-triazol-2-yl)phenyl][5-[3-methoxy-6-(methyl-d3)pyrazin-2-yl]-3,3a,4,6a-tetrahydrocyclopentyl[c]pyrrol-2(1H)-yl]methanone]	2.3		0.016						144	
[2H]C([2H])([2H])Oc1ccc(C(=O)N2CC3C=C(c4nc(C)cnc4OC)CC3C2)c(-n2nccn2)c1 (stereo not shown) [Compound 57, [5-(3-methoxy-6-methylpyrazin-2-yl)-3,3a,4,6a-tetrahydrocyclopenta[c]pyrrol-2(1H)-yl][4-(methoxy-d3)-2-(2H-1,2,3-triazol-2-yl)phenyl]methanone]	3.16		0.018						176	
[2H]C([2H])([2H])Oc1ncc(C)nc1C1=CC2CN(C(=O)c3ccc(OC)cc3-n3nccn3)CC2C1 (stereo not shown) [Compound 58, [4-methoxy-2-(2H-1,2,3-triazol-2-yl)phenyl][5-[3-(methoxy-d3)-6-methylpyrazin-2-yl]-3,3a,4,6a-tetrahydrocyclopentyl[c]pyrrol-2(1H)-yl]methanone]	1.98		0.024						83	
COc1ccc(C(=O)N2CC3C=C(c4nc(CF)cnc4OC)CC3C2)c(-n2nccn2)c1 (stereo not shown) [Compound 59, [5-[6-(fluoromethyl)-3-methoxypyrazin-2-yl]-3,3a,4,6a-tetrahydrocyclopentyl[c]pyrrol-2(1H)-yl][4-methoxy-2-(2H-1,2,3-triazol-2-yl)phenyl]methanone]	1.8		0.017						106	
COc1ncc(C)nc1C1=CC2CN(C(=O)c3ccc(F)cc3-n3cccn3)CC2C1 (stereo not shown) [Compound 61, [4-fluoro-2-(1H-pyrazol-1-yl)phenyl][5-(3-methoxy-6-methylpyrazin-2-yl)-3,3a,4,6a-tetrahydrocyclopenta[c]pyrrol-2(1H)-yl]methanone]	2.1	150	0.014	737	1920	5400	5690	24.4		
Cc1cnc(C#N)c(C2=CC3CN(C(=O)c4ccc(F)cc4-n4nccn4)CC3C2)n1 (stereo not shown) [Compound 62, 3-[2-[4-fluoro-2-(2H-1,2,3-triazol-2-yl)benzoyl]-1,2,3,3a,4,6a-hexahydrocyclopenta[c]pyrrol-5-yl]-5-methylpyrazine-2-carbonitrile]	1.65		0.018						92	
